In PMC6593727 (Clinical Pharmacology in Drug Development, 2019):
Where two headings read alike, the source gives them in different places.

Experiments:
CYP3A4 = CYP3A4 (Homo sapiens, UniProt P08684); settings: for AUC(0-inf): AUCinf; for Tmax: tmax (median [min‐max]); for half-life: t½
CYP2C19 [1] = molecular target: T1, CYP2C19 (Homo sapiens, UniProt P33261); settings: for AUC(0-inf): AUCinf; for half-life: t½
CYP2D6 = CYP2D6 (Homo sapiens, UniProt P10635); settings: for AUC(0-inf) / Cmax / Tmax / half-life: female, human, plasma, oral; for AUC(0-inf): AUCinf; for Tmax: tmax (median [min‐max]); for half-life: t½
Chain of CYP2D6 (P10635 whole entry): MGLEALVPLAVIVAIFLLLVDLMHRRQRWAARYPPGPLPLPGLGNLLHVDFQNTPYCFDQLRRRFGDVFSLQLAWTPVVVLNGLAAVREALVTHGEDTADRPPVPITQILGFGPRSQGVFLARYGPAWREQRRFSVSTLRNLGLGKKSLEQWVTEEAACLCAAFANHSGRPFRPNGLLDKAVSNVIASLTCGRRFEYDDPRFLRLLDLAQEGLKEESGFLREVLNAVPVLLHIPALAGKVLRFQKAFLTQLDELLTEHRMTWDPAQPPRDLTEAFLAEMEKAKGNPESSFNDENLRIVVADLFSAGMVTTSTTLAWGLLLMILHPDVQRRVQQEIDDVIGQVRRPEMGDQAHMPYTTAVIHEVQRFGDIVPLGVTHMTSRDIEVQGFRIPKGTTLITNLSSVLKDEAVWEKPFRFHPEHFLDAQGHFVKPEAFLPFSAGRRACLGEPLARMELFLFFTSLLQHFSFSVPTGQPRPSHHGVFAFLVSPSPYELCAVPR

CYP2C9 = CYP2C9 (Homo sapiens, UniProt P11712); experiment: Inje cocktail DDI study: losartan and EXP‐3174 PK, assessment of CYP2C9 activity; settings: for AUC(0-inf) / Cmax / Tmax / half-life: female, human, plasma, oral; for AUC(0-inf): AUCinf; for Tmax: tmax (median [min‐max]); for half-life: t½
Chain of CYP2C9 (P11712 whole entry): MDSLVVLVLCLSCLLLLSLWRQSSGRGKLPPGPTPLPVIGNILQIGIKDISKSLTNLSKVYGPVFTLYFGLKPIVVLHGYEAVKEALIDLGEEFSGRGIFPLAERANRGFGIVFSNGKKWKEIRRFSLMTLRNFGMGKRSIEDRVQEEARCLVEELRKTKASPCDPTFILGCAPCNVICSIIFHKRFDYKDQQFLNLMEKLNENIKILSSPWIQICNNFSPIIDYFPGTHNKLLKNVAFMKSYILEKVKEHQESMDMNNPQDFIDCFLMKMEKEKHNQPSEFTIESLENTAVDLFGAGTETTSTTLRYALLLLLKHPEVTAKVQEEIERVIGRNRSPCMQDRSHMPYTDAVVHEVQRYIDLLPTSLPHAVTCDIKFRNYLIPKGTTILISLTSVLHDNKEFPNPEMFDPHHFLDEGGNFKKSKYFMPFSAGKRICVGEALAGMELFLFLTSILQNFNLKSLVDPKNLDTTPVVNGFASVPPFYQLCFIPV

CYP2C19 [2] = molecular target: T1, CYP2C19; settings: single oral 20 mg omeprazole with 100 mg ASP8477 vs alone, female subjects; ref first‐in‐human study (8477‐CL‐0001); cited from earlier work
[3] = cocktail alone (day 1), mean ± SD
[4] = + 20 mg ASP8477 once daily (day 7), mean ± SD
[5] = probe dextromethorphan, + 60 mg ASP8477 once daily (day 14), mean ± SD
[6] = probe dextromethorphan, + 100 mg ASP8477 once daily (day 23), mean ± SD
[7] = probe dextromethorphan, + 20 mg ASP8477 once daily (day 7)
[8] = probe dextromethorphan, + 60 mg ASP8477 once daily (day 14)
[9] = probe dextromethorphan, + 100 mg ASP8477 once daily (day 23)
[10] = probe dextromethorphan, + 20 mg ASP8477 once daily (day 7), mean ± SD
[11] = + 60 mg ASP8477 once daily (day 14), mean ± SD
[12] = + 100 mg ASP8477 once daily (day 23), mean ± SD
[13] = + 20 mg ASP8477 once daily (day 7)
[14] = + 60 mg ASP8477 once daily (day 14)
[15] = + 100 mg ASP8477 once daily (day 23)
[16] = female, human, plasma, oral, probe midazolam, + 20 mg ASP8477 once daily (day 7), mean ± SD
[17] = female, human, plasma, oral, probe midazolam, + 60 mg ASP8477 once daily (day 14), mean ± SD
[18] = female, human, plasma, oral, probe midazolam, + 100 mg ASP8477 once daily (day 23), mean ± SD
[19] = female, human, plasma, oral, + 20 mg ASP8477 once daily (day 7), mean ± SD
[20] = female, human, plasma, oral, + 60 mg ASP8477 once daily (day 14), mean ± SD
[21] = female, human, plasma, oral, cocktail alone (day 1), mean ± SD

T1 sequence (P33261 whole entry): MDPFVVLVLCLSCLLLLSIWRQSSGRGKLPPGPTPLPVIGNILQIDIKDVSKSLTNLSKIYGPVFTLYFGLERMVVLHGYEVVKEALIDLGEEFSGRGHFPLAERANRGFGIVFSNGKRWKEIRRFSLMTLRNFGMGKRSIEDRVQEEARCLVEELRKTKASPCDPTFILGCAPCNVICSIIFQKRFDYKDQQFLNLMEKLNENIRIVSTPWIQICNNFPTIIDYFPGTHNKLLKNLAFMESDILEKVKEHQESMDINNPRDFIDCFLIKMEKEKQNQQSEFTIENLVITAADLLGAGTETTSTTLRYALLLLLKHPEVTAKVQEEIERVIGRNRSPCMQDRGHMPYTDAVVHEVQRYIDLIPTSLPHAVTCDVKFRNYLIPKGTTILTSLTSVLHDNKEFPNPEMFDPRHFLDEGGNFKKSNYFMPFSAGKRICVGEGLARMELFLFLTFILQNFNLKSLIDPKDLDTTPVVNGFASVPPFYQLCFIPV
Chain of CYP3A4 (P08684 whole entry): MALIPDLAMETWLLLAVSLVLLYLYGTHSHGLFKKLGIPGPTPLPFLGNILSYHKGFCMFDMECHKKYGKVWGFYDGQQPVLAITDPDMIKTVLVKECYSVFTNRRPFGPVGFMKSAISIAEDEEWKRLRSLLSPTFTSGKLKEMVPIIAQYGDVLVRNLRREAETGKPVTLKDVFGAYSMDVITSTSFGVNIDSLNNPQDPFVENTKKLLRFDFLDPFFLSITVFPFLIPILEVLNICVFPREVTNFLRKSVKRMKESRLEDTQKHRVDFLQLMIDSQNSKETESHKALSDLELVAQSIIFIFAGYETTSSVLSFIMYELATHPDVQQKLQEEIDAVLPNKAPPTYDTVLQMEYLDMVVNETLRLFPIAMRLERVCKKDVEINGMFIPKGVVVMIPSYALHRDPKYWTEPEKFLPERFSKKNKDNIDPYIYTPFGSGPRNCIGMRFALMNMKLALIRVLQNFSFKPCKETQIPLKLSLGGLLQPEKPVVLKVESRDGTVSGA

Structure (SMILES): OCc1ncc2n1-c1ccc(Cl)cc1C(c1ccccc1F)=NC2 [1‐OH‐Midazolam, 1‐hydroxymidazolam]
- tmax (median [min‐max]) (CYP3A4; cocktail alone (day 1)): 0.52 (0.48‐1.0) h
- AUCinf (CYP3A4; [3]): 12 ± 6.1 ng·h/mL
- Cmax (CYP3A4; [3]): 5.5 ± 3.0 ng/mL
- t½ (CYP3A4; [3]): 7.8 ± 13 h

Structure (SMILES): COc1ccc2nc([S+]([O-])Cc3ncc(CO)c(OC)c3C)[nH]c2c1 (stereo not drawn) [5‐OH‐Omeprazole, 5‐hydroxyomeprazole]
- tmax (median [min‐max]) (CYP2C19 [1]; cocktail alone (day 1)): 2.0 (0.98‐4.0) h
- AUCinf (CYP2C19 [1]; [3]): 550 ± 130 ng·h/mL
- Cmax (CYP2C19 [1]; [3]): 230 ± 76 ng/mL
- t½ (CYP2C19 [1]; [3]): 1.4 ± 0.56 h

Structure (SMILES): COc1ccc2c(c1)[C@]13CCCC[C@@H]1[C@H](C2)N(C)CC3 [Dextromethorphan, dextromethorphan, reference compound]
- CL/F (CYP2D6; [3]): 4000 ± 3200 L/h
- AUC(0-inf) (CYP2D6; [4]): 16 ± 12 ng·h/mL
- AUC(0-inf) (CYP2D6; [3]): 12 ± 7.9 ng·h/mL
- Cmax (CYP2D6; [4]): 1.8 ± 1.2 ng/mL
- Cmax (CYP2D6; [3]): 1.3 ± 0.72 ng/mL
- AUC(0-inf) (CYP2D6; [5]): 39 ± 25 ng·h/mL
- AUC(0-inf) (CYP2D6; [6]): 65 ± 44 ng·h/mL
- Cmax (CYP2D6; [5]): 3.8 ± 2.3 ng/mL
- Cmax (CYP2D6; [6]): 5.6 ± 3.1 ng/mL
- Tmax (CYP2D6; [7]): 3 h
- Tmax (CYP2D6; [8]): 3.1 h
- Tmax (CYP2D6; [9]): 3 h
- half-life (CYP2D6; [10]): 7.7 ± 2.1 h
- half-life (CYP2D6; [5]): 9.3 ± 1.4 h
- half-life (CYP2D6; [6]): 9.9 ± 1.5 h
- Tmax (CYP2D6; cocktail alone (day 1)): 2 h
- half-life (CYP2D6; [3]): 8 ± 2.5 h

Structure (SMILES): CN1CC[C@@]23CCCC[C@@H]2[C@@H]1Cc1ccc(O)cc13 [Dextrorphan, dextrorphan]
- AUC(0-inf) (CYP2D6; [4]): 2400 ± 420 ng·h/mL
- AUC(0-inf) (CYP2D6; [3]): 2400 ± 450 ng·h/mL
- Cmax (CYP2D6; [4]): 470 ± 110 ng/mL
- Cmax (CYP2D6; [3]): 490 ± 133 ng/mL
- AUC(0-inf) (CYP2D6; [5]): 2700 ± 510 ng·h/mL
- AUC(0-inf) (CYP2D6; [6]): 3000 ± 520 ng·h/mL
- Cmax (CYP2D6; [5]): 430 ± 110 ng/mL
- Cmax (CYP2D6; [6]): 400 ± 100 ng/mL
- Tmax (CYP2D6; [7]): 2 h
- Tmax (CYP2D6; [8]): 3.1 h
- Tmax (CYP2D6; [9]): 3 h
- half-life (CYP2D6; [10]): 6.5 ± 1.7 h
- half-life (CYP2D6; [5]): 8.8 ± 2.1 h
- half-life (CYP2D6; [6]): 9.9 ± 2.4 h
- Tmax (CYP2D6; cocktail alone (day 1)): 2 h
- half-life (CYP2D6; [3]): 5.8 ± 1.2 h

Structure (SMILES): CCCCc1nc(Cl)c(C(=O)O)n1Cc1ccc(-c2ccccc2-c2nn[nH]n2)cc1 [EXP‐3174, losartan acid]
- AUC(0-inf) (CYP2C9; [4]): 1100 ± 280 ng·h/mL
- AUC(0-inf) (CYP2C9; [11]): 960 ± 240 ng·h/mL
- AUC(0-inf) (CYP2C9; [12]): 780 ± 250 ng·h/mL
- AUC(0-inf) (CYP2C9; [3]): 1100 ± 370 ng·h/mL
- Cmax (CYP2C9; [4]): 96 ± 48 ng/mL
- Cmax (CYP2C9; [11]): 54 ± 26 ng/mL
- Cmax (CYP2C9; [12]): 35 ± 19 ng/mL
- Cmax (CYP2C9; [3]): 100 ± 65 ng/mL
- Tmax (CYP2C9; [13]): 5 h
- Tmax (CYP2C9; [14]): 8 h
- Tmax (CYP2C9; [15]): 8.1 h
- Tmax (CYP2C9; cocktail alone (day 1)): 4 h
- half-life (CYP2C9; [4]): 8.8 ± 3.5 h
- half-life (CYP2C9; [11]): 13 ± 3.7 h
- half-life (CYP2C9; [12]): 12 ± 2.5 h
- half-life (CYP2C9; [3]): 8 ± 0.64 h

Structure (SMILES): CCCCc1nc(Cl)c(CO)n1Cc1ccc(-c2ccccc2-c2nn[nH]n2)cc1 [Losartan, losartan, reference compound]
- CL/F (CYP2C9; [3]): 140 ± 61 L/h
- AUC(0-inf) (CYP2C9; [4]): 230 ± 100 ng·h/mL
- AUC(0-inf) (CYP2C9; [11]): 320 ± 140 ng·h/mL
- AUC(0-inf) (CYP2C9; [12]): 410 ± 180 ng·h/mL
- AUC(0-inf) (CYP2C9; [3]): 220 ± 100 ng·h/mL
- Cmax (CYP2C9; [4]): 78 ± 37 ng/mL
- Cmax (CYP2C9; [11]): 81 ± 59 ng/mL
- Cmax (CYP2C9; [12]): 80 ± 64 ng/mL
- Cmax (CYP2C9; [3]): 64 ± 33 ng/mL
- Tmax (CYP2C9; [13]): 0.52 h
- Tmax (CYP2C9; [14]): 0.52 h
- Tmax (CYP2C9; [15]): 0.5 h
- Tmax (CYP2C9; cocktail alone (day 1)): 1 h
- half-life (CYP2C9; [4]): 4 ± 2.2 h
- half-life (CYP2C9; [11]): 5 ± 2.2 h
- half-life (CYP2C9; [12]): 7.6 ± 3.3 h
- half-life (CYP2C9; [3]): 3.7 ± 2.5 h

Structure (SMILES): Cc1ncc2n1-c1ccc(Cl)cc1C(c1ccccc1F)=NC2 [Midazolam, midazolam]
- CL/F (CYP3A4; [3]): 66 ± 15 L/h
- AUC(0-inf) (CYP3A4; [16]): 38 ± 11 ng·h/mL
- AUC(0-inf) (CYP3A4; [17]): 49 ± 15 ng·h/mL
- AUC(0-inf) (CYP3A4; [18]): 51 ± 15 ng·h/mL
- Cmax (CYP3A4; female, human, plasma, oral, probe midazolam, Cmax, + 20 mg ASP8477 once daily (day 7), mean ± SD): 16 ± 5.7 ng/mL
- Cmax (CYP3A4; female, human, plasma, oral, probe midazolam, Cmax, + 60 mg ASP8477 once daily (day 14), mean ± SD): 20 ± 5.1 ng/mL
- Cmax (CYP3A4; female, human, plasma, oral, probe midazolam, Cmax, + 100 mg ASP8477 once daily (day 23), mean ± SD): 21 ± 5.1 ng/mL
- Tmax (CYP3A4; female, human, plasma, oral, probe midazolam, + 20 mg ASP8477 once daily (day 7)): 0.52 h
- Tmax (CYP3A4; female, human, plasma, oral, probe midazolam, + 60 mg ASP8477 once daily (day 14)): 0.52 h
- Tmax (CYP3A4; female, human, plasma, oral, probe midazolam, + 100 mg ASP8477 once daily (day 23)): 0.5 h
- Tmax (CYP3A4; female, human, plasma, oral, probe midazolam, cocktail alone (day 1)): 0.52 h
- half-life (CYP3A4; [16]): 5 ± 0.93 h
- half-life (CYP3A4; [17]): 5.1 ± 0.95 h
- half-life (CYP3A4; [18]): 5.1 ± 1.2 h

Structure (SMILES): COc1ccc2[nH]c([S+]([O-])Cc3ncc(C)c(OC)c3C)nc2c1 (stereo not drawn) [Omeprazole, omeprazole]
- increase of omeprazole AUCinf (CYP2C19 [2]): 7 fold
- increase of omeprazole Cmax (CYP2C19 [2]): 3.5 fold
- CL/F (CYP2C19 [1]; [3]): 40 ± 20 L/h
- AUC(0-inf) (CYP2C19 [1]; [19]): 1200 ± 520 ng·h/mL
- AUC(0-inf) (CYP2C19 [1]; [20]): 2500 ± 680 ng·h/mL
- AUC(0-inf) (CYP2C19 [1]; female, human, plasma, oral, + 100 mg ASP8477 once daily (day 23), mean ± SD): 3300 ± 1100 ng·h/mL
- AUC(0-inf) (CYP2C19 [1]; [21]): 630 ± 300 ng·h/mL
- Cmax (CYP2C19 [1]; female, human, plasma, oral, Cmax, + 20 mg ASP8477 once daily (day 7), mean ± SD): 640 ± 190 ng/mL
- Cmax (CYP2C19 [1]; female, human, plasma, oral, Cmax, + 60 mg ASP8477 once daily (day 14), mean ± SD): 910 ± 260 ng/mL
- Cmax (CYP2C19 [1]; female, human, plasma, oral, Cmax, + 100 mg ASP8477 once daily (day 23), mean ± SD): 1100 ± 250 ng/mL
- Cmax (CYP2C19 [1]; female, human, plasma, oral, Cmax, cocktail alone (day 1), mean ± SD): 320 ± 150 ng/mL
- half-life (CYP2C19 [1]; [19]): 0.77 ± 0.2 h
- half-life (CYP2C19 [1]; [20]): 1.1 ± 0.25 h
- half-life (CYP2C19 [1]; [21]): 0.79 ± 0.17 h
